In patent US20250388574A1, “HETEROCYCLIC COMPOUNDS AS TRIGGERING RECEPTOR EXPRESSED ON MYELOID CELLS 2 AGONISTS AND METHODS OF USE” (AMGEN INC., priority 2020, published 2025) one finds Emax and EC50 data, which are given here for 25 compounds.

The experiment addresses hTREM2 (Homo sapiens, UniProt Q9NZC2). As to the kind of experiment: Phospho-Syk AlphaScreen/AlphaLISA assay in TREM2 and DAP12 overexpressing HEK293 cells (Example A1). It counts as cell-based. Details: expressed in transfected cells. The conditions noted are these: HEK293 cells; for pEC50: read-out: hTREM2 EC50. In a few lines: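 Agonism read as Syk phosphorylation: compounds in 1% DMSO applied 45 min at room temperature to TREM2/DAP12-HEK293 cells after 20 h culture. Lysis buffer with phosphatase inhibitors and anti-phospho-Syk plus biotinylated anti-Syk antibodies, then AlphaLISA beads (680 nm excitation); percent of control computed from antibody/isotype wells, curves fitted sigmoidally.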
(In Alpha technology, singlet oxygen from a donor bead excites a nearby acceptor bead.)

As a reminder, the pEC50 is the negative decadic logarithm of the EC50, by convention in mol/L.

Structures are written as SMILES. pEC50: −log10 of the molar value.

Chain of hTREM2 (Q9NZC2 19-230): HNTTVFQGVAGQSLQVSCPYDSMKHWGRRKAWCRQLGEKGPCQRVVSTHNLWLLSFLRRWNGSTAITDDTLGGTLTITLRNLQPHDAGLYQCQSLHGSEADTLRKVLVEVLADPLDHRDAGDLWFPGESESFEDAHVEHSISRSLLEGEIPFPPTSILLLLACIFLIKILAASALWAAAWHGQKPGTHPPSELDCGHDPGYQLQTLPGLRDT
Chain of hTREM2 (O43914 22-113 partner): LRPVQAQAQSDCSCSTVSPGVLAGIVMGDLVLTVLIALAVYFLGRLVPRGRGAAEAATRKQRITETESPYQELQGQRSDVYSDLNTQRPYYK

For the compound `CCc1nnc([C@@H]2CN(c3cc4nc(C)n(C)c(=O)c4c(-c4ccc(Cl)cc4F)n3)CCO2)[nH]1` [Example 241, (S)-5-(4-chloro-2-fluorophenyl)-7-(2-(5-ethyl-4H-1,2,4-triazol-3-yl)morpholino)-2,3-dimethylpyrido[4,3-d]pyrimidin-4(3H)-one], the Emax result was “+++ (Emax>200 and ≤300)”; the pEC50 is 4.00 to 5.52.
As for `Cc1nc2cc(N3CCC[C@H](N4CCCC4)C3)nc(-c3ccc(Cl)cc3F)c2c(=O)n1C` [Example 242, (S)-5-(4-chloro-2-fluorophenyl)-2,3-dimethyl-7-(3-(pyrrolidin-1-yl)piperidin-1-yl)pyrido[4,3-d]pyrimidin-4(3H)-one], the Emax result was “+++ (Emax>200 and ≤300)”; the pEC50 is 4.00 to 5.52.
Take `COc1cc([C@@H]2CN(c3cc4nc(C)n(C)c(=O)c4c(-c4ccc(Cl)cc4F)n3)CCO2)ccn1` [Example 243, (R)-5-(4-chloro-2-fluorophenyl)-7-(2-(2-methoxypyridin-4-yl)morpholino)-2,3-dimethylpyrido[4,3-d]pyrimidin-4(3H)-one]: the Emax entry is on record as “++++ (Emax>300)” and the pEC50 is over 7.30.
Take `Cc1nc2cc(N3CCC[C@@H](N(C)C)C3)nc(-c3ccc(Cl)cc3F)c2c(=O)n1C` [Example 244, (R)-5-(4-chloro-2-fluorophenyl)-7-(3-(dimethylamino)piperidin-1-yl)-2,3-dimethylpyrido[4,3-d]pyrimidin-4(3H)-one]: the Emax entry is “+++ (Emax>200 and ≤300)”; the pEC50 was 4.00 to 5.52.
Turning to `Cc1nc2cc(N3CCC[C@H](N4CCC4)C3)nc(-c3ccc(Cl)cc3F)c2c(=O)n1C` [Example 245, (S)-7-(3-(azetidin-1-yl)piperidin-1-yl)-5-(4-chloro-2-fluorophenyl)-2,3-dimethylpyrido[4,3-d]pyrimidin-4(3H)-one], the Emax result is “++ (Emax>100 and ≤200)”; the pEC50 was 4.00 to 5.52.
In the case of `Cc1nc2cc(N3CCC[C@@H](N4CCC4)C3)nc(-c3ccc(Cl)cc3F)c2c(=O)n1C` [Example 246, (R)-7-(3-(azetidin-1-yl)piperidin-1-yl)-5-(4-chloro-2-fluorophenyl)-2,3-dimethylpyrido[4,3-d]pyrimidin-4(3H)-one], the Emax result was “+++ (Emax>200 and ≤300)”; the negative logarithm of the EC50 (pEC50) is 4.00 to 5.52.
With `Cc1nc2cc(N3Cc4cccnc4C3)nc(-c3ccc(Cl)cc3F)c2c(=O)n1C` [Example 247, 5-(4-chloro-2-fluorophenyl)-7-(5,7-dihydro-6H-pyrrolo[3,4-b]pyridin-6-yl)-2,3-dimethylpyrido [4,3-d]pyrimidin-4(3H)-one], the Emax result is “++ (Emax>100 and ≤200)”; the pEC50 was 4.00 to 5.52.
As to `Cc1nc2cc(N3CCc4ncccc4C3)nc(-c3ccc(Cl)cc3F)c2c(=O)n1C` [Example 248, 5-(4-chloro-2-fluorophenyl)-7-(7,8-dihydro-1,6-naphthyridin-6(5H)-yl)-2,3-dimethylpyrido[4,3-d]pyrimidin-4(3H)-one], the Emax entry is “+++ (Emax>200 and ≤300)”; the pEC50 is 4.00 to 5.52.
Consider `Cc1nc2cc(N3CCC(F)(F)[C@H](N4CCC4)C3)nc(-c3ccc(Cl)cc3F)c2c(=O)n1C` [Example 249, (R)-7-(3-(azetidin-1-yl)-4,4-difluoropiperidin-1-yl)-5-(4-chloro-2-fluorophenyl)-2,3-dimethylpyrido[4,3-d]pyrimidin-4(3H)-one], for which the Emax result is reported as “++++ (Emax>300)” and the pEC50 is 5.52 to 6.30.
In the case of `Cc1nc2cc(N3CCC(F)(F)[C@H](N(C)C)C3)nc(-c3ccc(Cl)cc3F)c2c(=O)n1C` [Example 250, (R)-5-(4-chloro-2-fluorophenyl)-7-(3-(dimethylamino)-4,4-difluoropiperidin-1-yl)-2,3-dimethylpyrido[4,3-d]pyrimidin-4(3H)-one], the Emax entry was “++++ (Emax>300)” and the pEC50 is 4.00 to 5.52.
`Cc1nc2cc(N3CCC[C@@H](C4CNC4)C3)nc(-c3ccc(Cl)cc3F)c2c(=O)n1C` [Example 251, (S)-7-(3-(azetidin-3-yl)piperidin-1-yl)-5-(4-chloro-2-fluorophenyl)-2,3-dimethylpyrido[4,3-d]pyrimidin-4(3H)-one]: the Emax entry is “++ (Emax>100 and ≤200)”; the pEC50 is 4.00 to 5.52.
Take `Cc1nc2cc(N3CCC[C@H](C4CN(C)C4)C3)nc(-c3ccc(Cl)cc3F)c2c(=O)n1C` [Example 252, (R)-5-(4-chloro-2-fluorophenyl)-2,3-dimethyl-7-(3-(1-methylazetidin-3-yl)piperidin-1-yl)pyrido[4,3-d]pyrimidin-4(3H)-one]: the Emax entry is “+++ (Emax>200 and ≤300)”; the pEC50 is 4.00 to 5.52.
For `Cc1nc2cc(N3CCO[C@@H](c4cnn(C(F)F)c4)C3)nc(-c3ccc(Cl)cc3F)c2c(=O)n1C` [Example 253, (S)-5-(4-chloro-2-fluorophenyl)-7-(2-(1-(difluoromethyl)-1H-pyrazol-4-yl)morpholino)-2,3-dimethylpyrido[4,3-d]pyrimidin-4(3H)-one], the Emax entry is given as “++++ (Emax>300)” and the pEC50 is over 7.30.
For `Cc1nc2cc(N3CC[C@H](c4ccncc4)C3)nc(-c3ccc(Cl)cc3F)c2c(=O)n1C` [Example 254, (R)-5-(4-chloro-2-fluorophenyl)-2,3-dimethyl-7-(3-(pyridin-4-yl)pyrrolidin-1-yl)pyrido[4,3-d]pyrimidin-4(3H)-one], the Emax result is listed as “++++ (Emax>300)” and the pEC50 is 4.00 to 5.52.
In the case of `Cc1nc2cc(N3CC[C@H](N(C)C)C3)nc(-c3ccc(Cl)cc3F)c2c(=O)n1C` [Example 255, (S)-5-(4-chloro-2-fluorophenyl)-7-(3-(dimethylamino)pyrrolidin-1-yl)-2,3-dimethylpyrido[4,3-d]pyrimidin-4(3H)-one], the Emax entry was “+++ (Emax>200 and ≤300)”; the pEC50 is 4.00 to 5.52.
Turning to `Cc1nc2cc(N3CC[C@@H](C(F)(F)F)C3)nc(-c3ccc(Cl)cc3F)c2c(=O)n1C` [Example 256, (R)-5-(4-chloro-2-fluorophenyl)-2,3-dimethyl-7-(3-(trifluoromethyl)pyrrolidin-1-yl)pyrido[4,3-d]pyrimidin-4(3H)-one], the Emax result is given as “++++ (Emax>300)” and the pEC50 was 4.00 to 5.52.
Regarding `Cc1nc2cc(N3CC[C@H](C(F)(F)F)C3)nc(-c3ccc(Cl)cc3F)c2c(=O)n1C` [Example 257, (S)-5-(4-chloro-2-fluorophenyl)-2,3-dimethyl-7-(3-(trifluoromethyl)pyrrolidin-1-yl)pyrido[4,3-d]pyrimidin-4(3H)-one], the Emax entry is “++ (Emax>100 and ≤200)”; the pEC50 is 5.52 to 6.30.
On to `Cc1nc2cc(N3CC[C@@H](C(F)F)C3)nc(-c3ccc(Cl)cc3F)c2c(=O)n1C` [Example 258, (R)-5-(4-chloro-2-fluorophenyl)-7-(3-(difluoromethyl)pyrrolidin-1-yl)-2,3-dimethylpyrido[4,3-d]pyrimidin-4(3H)-one], for which the Emax result was “+++ (Emax>200 and ≤300)”; the pEC50 was 4.00 to 5.52.
With `Cc1nc2cc(N3CC[C@H](C(F)F)C3)nc(-c3ccc(Cl)cc3F)c2c(=O)n1C` [Example 259, (S)-5-(4-chloro-2-fluorophenyl)-7-(3-(difluoromethyl)pyrrolidin-1-yl)-2,3-dimethylpyrido[4,3-d]pyrimidin-4(3H)-one], the Emax entry is “++ (Emax>100 and ≤200)”; the pEC50 was 4.00 to 5.52.
`Cc1nc2cc(N3CC[C@@H](c4cccnc4)C3)nc(-c3ccc(Cl)cc3F)c2c(=O)n1C` [Example 260, (S)-5-(4-chloro-2-fluorophenyl)-2,3-dimethyl-7-(3-(pyridin-3-yl)pyrrolidin-1-yl)pyrido[4,3-d]pyrimidin-4(3H)-one]: the Emax result is recorded as “++++ (Emax>300)” and the pEC50 is 4.00 to 5.52.
For the compound `Cc1nc2cc(N3CC[C@H](c4cccnc4)C3)nc(-c3ccc(Cl)cc3F)c2c(=O)n1C` [Example 261, (R)-5-(4-chloro-2-fluorophenyl)-2,3-dimethyl-7-(3-(pyridin-3-yl)pyrrolidin-1-yl)pyrido[4,3-d]pyrimidin-4(3H)-one], the Emax entry was “++++ (Emax>300)” and the pEC50 is 4.00 to 5.52.
With `Cc1c([C@H]2CN(c3cc4nc(C)n(C)c(=O)c4c(-c4ccc(Cl)cc4F)n3)CCO2)cnn1C` [Example 262, (S)-5-(4-chloro-2-fluorophenyl)-7-(2-(1,5-dimethyl-1H-pyrazol-4-yl)morpholino)-2,3-dimethylpyrido[4,3-d]pyrimidin-4(3H)-one], the Emax entry was “+++ (Emax>200 and ≤300)”; the pEC50 was 5.52 to 6.30.
Consider `Cc1nn(C)cc1[C@H]1CN(c2cc3nc(C)n(C)c(=O)c3c(-c3ccc(Cl)cc3F)n2)CCO1` [Example 263, (S)-5-(4-chloro-2-fluorophenyl)-7-(2-(1,3-dimethyl-1H-pyrazol-4-yl)morpholino)-2,3-dimethylpyrido[4,3-d]pyrimidin-4(3H)-one], for which the Emax result is “+++ (Emax>200 and ≤300)”; the pEC50 was 6.30 to 7.30.
For `CCn1c(C)nc2cc(N3CCO[C@H](c4noc(C)n4)C3)nc(-c3ccc(Cl)cc3F)c2c1=O` [Example 264, (S)-5-(4-chloro-2-fluorophenyl)-3-ethyl-2-methyl-7-(2-(5-methyl-1,2,4-oxadiazol-3-yl)morpholino)pyrido[4,3-d]pyrimidin-4(3H)-one], the Emax result is “+++ (Emax>200 and ≤300)”; the pEC50 is 6.30 to 7.30.
In the case of `Cc1nc2cc(N3CCO[C@H](c4ccnc(C(F)(F)F)c4)C3)nc(-c3ccc(Cl)cc3F)c2c(=O)n1C` [Example 265, (R)-5-(4-chloro-2-fluorophenyl)-2,3-dimethyl-7-(2-(2-(trifluoromethyl)pyridin-4-yl)morpholino)pyrido[4,3-d]pyrimidin-4(3H)-one], the Emax entry is “+++ (Emax>200 and ≤300)”; the pEC50 is 5.52 to 6.30.
